The supplement of paper PMC10331698
± gives the standard deviation of the averaged measurements.

Key:
Test in all cases: level (log10 ratio to DMSO vehicle control); higher = higher biomarker level / cell amount than vehicle control
Conditions in all cases: in DMSO
[1] = compound: FC(F)(F)C(F)(F)C(F)(F)C(F)(F)C(F)(F)C(F)(F)C(F)(F)CCI [1-Iodo-1H,1H,2H,2H-perfluorononane]
Protocol: (§1)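 BioMAP Diversity Plus panel of 12 human primary cell co-culture systems (3C, 4H, LPS, SAg, BT, BF4T, BE3C, CASM3C, HDF3CGF, KF3CT, MyoF, Mphg). Compounds were added 1 h before stimulation and left for 24 h (MyoF 48 h; BT 72 h for soluble read-outs or 6 d for IgG). Biomarkers were read by ELISA, cytotoxicity by SRB, PBMC viability and proliferation by Alamar Blue. Each well value was divided by the mean of 8 DMSO control wells on the same plate and log10 transformed; duplicate blinded samples were tested at 4 concentrations.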

[2] = compound: CNS(=O)(=O)C(F)(F)C(F)(F)C(F)(F)C(F)(F)C(F)(F)C(F)(F)C(F)(F)C(F)(F)F [N-Methylperfluorooctanesulfonamide]
Protocol: as §1

Perfluorooctanamide = compound: NC(=O)C(F)(F)C(F)(F)C(F)(F)C(F)(F)C(F)(F)C(F)(F)C(F)(F)F [Perfluorooctanamide]
Protocol: as §1

1H,1H-Heptafluorobutanol = compound: OCC(F)(F)C(F)(F)C(F)(F)F [1H,1H-Heptafluorobutanol]
Protocol: as §1

[3] = compound: C=CC(=O)OCCC(F)(F)C(F)(F)C(F)(F)C(F)(F)F [2-(Perfluorobutyl)ethyl acrylate]
Protocol: as §1

Hexafluoroglutaric acid = compound: O=C(O)C(F)(F)C(F)(F)C(F)(F)C(=O)O [Hexafluoroglutaric acid]
Protocol: as §1

[4] = compound: O=P(O)(O)CCC(F)(F)C(F)(F)C(F)(F)C(F)(F)C(F)(F)C(F)(F)C(F)(F)C(F)(F)F [((Perfluorooctyl)ethyl)phosphonic acid]
Protocol: as §1

Row | Test System | level (log10) ([1]; 6700 nM) | level (log10) ([1]; 20000 nM) | level (log10) ([2]; 6700 nM) | level (log10) ([2]; 20000 nM) | level (log10) ([2]; 60000 nM) | level (log10) (Perfluorooctanamide; 6700 nM) | level (log10) (Perfluorooctanamide; 20000 nM) | level (log10) (Perfluorooctanamide; 60000 nM) | level (log10) (1H,1H-Heptafluorobutanol; 6700 nM) | level (log10) (1H,1H-Heptafluorobutanol; 20000 nM) | level (log10) (1H,1H-Heptafluorobutanol; 60000 nM) | level (log10) ([3]; 6700 nM) | level (log10) ([3]; 20000 nM) | level (log10) ([3]; 60000 nM) | level (log10) (Hexafluoroglutaric acid; 6700 nM) | level (log10) (Hexafluoroglutaric acid; 20000 nM) | level (log10) (Hexafluoroglutaric acid; 60000 nM) | level (log10) ([4]; 6700 nM) | level (log10) ([4]; 20000 nM) | level (log10) ([4]; 60000 nM)
1 | SAg:CD38 | 0.007 ± 0.03 | -0.007 ± 0.042 | -0.012 ± 0.0085 | -0.0255 ± 0.012 | -0.0515 ± 0.0064 | 0.0005 ± 0.005 | 0.0085 ± 0.028 | 0.003 ± 0.018 | -0.028 ± 0.064 | -0.0145 ± 0.015 | -0.0115 ± 0.088 | -0.007 ± 0.028 | -0.0105 ± 0.023 | -0.126 ± 0.0092 | -0.002 ± 0.0071 | -0.0075 ± 0.00071 | 0.0075 ± 0.021 | -0.015 ± 0.024 | -0.0155 ± 0.005 | -0.0945 ± 0.023
2 | LPS:CD62E/E-Selectin | -0.003 ± 0.027 | -0.0175 ± 0.057 | -0.024 ± 0.011 | 0.01 ± 0.02 | 0.03 ± 0.018 | -0.002 ± 0.014 | -0.001 ± 0.011 | 0.0205 ± 0.0078 | 0.0035 ± 0.013 | 0.001 ± 0.013 | -0.0035 ± 0.0092 | 0.0345 ± 0.023 | 0.033 ± 0.0071 | 0.0015 ± 0.04 | -0.003 ± 0.035 | 0.0045 ± 0.03 | 0.004 ± 0.033 | 0.0085 ± 0.018 | -0.0145 ± 0.015 | -0.012 ± 0.0057
3 | SAg:CD69 | -0.011 ± 0.017 | -0.0015 ± 0.018 | -0.0325 ± 0.0064 | -0.0405 ± 0.022 | -0.0685 ± 0.053 | -0.002 ± 0.028 | 0.0025 ± 0.013 | -0.0065 ± 0.023 | -0.013 ± 0.017 | -0.0035 ± 0.016 | 0.02 ± 0.016 | -0.028 ± 0.0028 | -0.0845 ± 0.026 | -0.225 ± 0.037 | -0.0125 ± 0.0064 | -0.016 ± 0.013 | 0.005 ± 0.0042 | -0.01 ± 0.017 | -0.016 ± 0.05 | -0.006 ± 0.052
4 | LPS:sPGE2 | -0.0095 ± 0.0021 | -0.03 ± 0.017 | -0.011 ± 0.0028 | 0.038 ± 0.0028 | 0.0305 ± 0.032 | 0.019 ± 0.035 | 0.0225 ± 0.025 | 0.0545 ± 0.036 | 0.025 ± 0.04 | -0.0225 ± 0.052 | 0.009 ± 0.027 | -0.0675 ± 0.022 | -0.099 ± 0.0085 | -0.101 ± 0.021 | -0.0265 ± 0.028 | -0.039 ± 0.031 | -0.0185 ± 0.069 | 0.0605 ± 0.0021 | 0.0675 ± 0.011 | 0.17 ± 0.023
5 | BE3C:CXCL11/I-TAC | -0.004 ± 0.0057 | -0.001 ± 0.0042 | -0.03 ± 0.0099 | -0.0165 ± 0.018 | -0.043 ± 0.0028 | 0.0015 ± 0.013 | 0.004 ± 0.0042 | 0 ± 0.0014 | 0.0065 ± 0.0035 | 0.0145 ± 0.023 | 0.0085 ± 0.023 | 0.0035 ± 0.00071 | -0.0065 ± 0.012 | -0.018 ± 0.0028 | 0.0045 ± 0.028 | -0.002 ± 0.024 | 0.0045 ± 0.013 | -0.0285 ± 0.011 | -0.0225 ± 0.0064 | -0.0205 ± 0.0035
6 | 4H:CCL2/MCP-1 | -0.0175 ± 0.019 | 0.0395 ± 0.1 | 0.002 ± 0.017 | -0.064 ± 0.017 | -0.103 ± 0.027 | -0.016 ± 0.0028 | -0.005 ± 0.0014 | -0.008 | 0.0015 ± 0.0035 | -0.0025 ± 0.00071 | 0.0125 ± 0.026 | -0.0405 ± 0.028 | -0.043 ± 0.037 | 0.009 ± 0.11 | -0.0095 ± 0.032 | -0.0135 ± 0.011 | 0.0245 ± 0.047 | -0.01 ± 0.0042 | -0.0135 ± 0.022 | 0.004 ± 0.042
7 | LPS:SRB | 0.0125 ± 0.0064 | 0.019 ± 0.017 | -0.0005 ± 0.00071 | -0.03 ± 0.0042 | -0.0625 ± 0.039 | 0.006 ± 0.013 | 0.001 ± 0.0099 | -0.0015 ± 0.011 | -0.0085 ± 0.0035 | 0.005 ± 0.0014 | -0.003 ± 0.0028 | 0.0015 ± 0.012 | -0.0015 ± 0.0035 | -0.013 ± 0.013 | -0.0025 ± 0.011 | -0.0065 ± 0.016 | 0.01 ± 0.025 | -0.01 ± 0.0042 | -0.0195 ± 0.011 | -0.08 ± 0.047
8 | BF4T:CXCL8/IL-8 | -0.0015 ± 0.018 | 0.011 ± 0.025 | -0.045 ± 0.03 | -0.034 ± 0.028 | -0.14 ± 0.03 | -0.0035 ± 0.013 | -0.0005 ± 0.026 | -0.0025 ± 0.03 | 0.019 ± 0.071 | 0.03 ± 0.071 | 0.034 ± 0.089 | -0.006 ± 0.023 | -0.0105 ± 0.025 | 0.005 ± 0.027 | 0.0125 ± 0.039 | 0.009 ± 0.041 | 0.0345 ± 0.0035 | 0.0075 ± 0.012 | 0.026 ± 0.017 | 0.0325 ± 0.0092
